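Tested at 5 concentrations; 48 h exposure; 96-well plates; endpoints linearly interpolated, else capped at highest concentration. TGI: concentration producing complete growth inhibition.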
What was measured:
Assay in all cases: inhibition of tumour cell growth, NCI panel, 48 h
[1] = tested on: 786-0 renal
[2] = tested on: A498 renal
[3] = tested on: A549 NSCLC
[4] = tested on: ACHN renal
[5] = tested on: CAKI-1 renal
[6] = tested on: CCRF-CEM leukemia
[7] = tested on: COLO 205 colon
[8] = tested on: DLD-1 colon
[9] = tested on: DMS 114 small cell lung
[10] = tested on: DMS 273 small cell lung
[11] = tested on: EKVX NSCLC
[12] = tested on: HCC-2998 colon
[13] = tested on: HCT-116 colon
[14] = tested on: HCT-15 colon
[15] = tested on: HL-60(TB) leukemia
[16] = tested on: HOP-18 NSCLC
[17] = tested on: HOP-62 NSCLC
[18] = tested on: HOP-92 NSCLC
[19] = tested on: HT29 colon
[20] = tested on: IGROV1 ovarian
[21] = tested on: K-562 leukemia
[22] = tested on: KM12 colon
[23] = tested on: KM20L2 colon
[24] = tested on: LOX IMVI melanoma
[25] = tested on: LXFL 529 NSCLC
[26] = tested on: M14 melanoma
[27] = tested on: M19-MEL melanoma
[28] = tested on: MALME-3M melanoma
[29] = tested on: MOLT-4 leukemia
[30] = tested on: NCI-H226 lung
[31] = tested on: NCI-H23 lung
[32] = tested on: NCI-H460 lung
[33] = tested on: NCI-H522 lung
[34] = tested on: OVCAR-3 ovarian
[35] = tested on: OVCAR-4 ovarian
[36] = tested on: OVCAR-5 ovarian
[37] = tested on: OVCAR-8 ovarian
[38] = tested on: RPMI-8226 leukemia
[39] = tested on: RXF 393 renal
[40] = tested on: SF-268 CNS
[41] = tested on: SF-295 CNS
[42] = tested on: SF-539 CNS
[43] = tested on: SK-MEL-2 melanoma
[44] = tested on: SK-MEL-28 melanoma
[45] = tested on: SK-MEL-5 melanoma
[46] = tested on: SK-OV-3 ovarian
[47] = tested on: SN12C renal
[48] = tested on: SNB-19 CNS
[49] = tested on: SNB-75 CNS
[50] = tested on: SNB-78 CNS
[51] = tested on: SR leukemia
[52] = tested on: SW-620 colon
[53] = tested on: TK-10 renal
[54] = tested on: U251 CNS
[55] = tested on: UACC-257 melanoma
[56] = tested on: UACC-62 melanoma
[57] = tested on: UO-31 renal
[58] = tested on: XF 498 CNS

Measured: TGI

C=C(Nc1ccc(OC)cc1OC)C(=O)Cc1cccc[n+]1[O-]
> 100 µM: [1] | [2] | [3] | [4] | [5] | [6] | [7] | [8] | [9] | [10] | [11] | [12] | [13] | [14] | [15] | [16] | [17] | [18] | [19] | [20] | [21] | [22] | [23] | [24] | [25] | [26] | [27] | [28] | [29] | [30] | [31] | [32] | [33] | [34] | [35] | [36] | [37] | [38] | [39] | [40] | [41] | [42] | [43] | [44] | [45] | [46] | [47] | [48] | [49] | [50] | [51] | [52] | [53] | [54] | [55] | [56] | [57] | [58]

CC(=O)N(C)c1ccc2ncccc2c1[N+](=O)[O-]
> 100 µM: [1] | [2] | [3] | [4] | [5] | [6] | [8] | [9] | [10] | [11] | [12] | [13] | [14] | [15] | [16] | [17] | [18] | [19] | [20] | [21] | [22] | [23] | [24] | [25] | [26] | [27] | [28] | [29] | [30] | [31] | [32] | [34] | [35] | [36] | [37] | [38] | [39] | [40] | [41] | [42] | [43] | [44] | [45] | [47] | [48] | [49] | [50] | [51] | [52] | [53] | [55] | [56] | [57] | [58]
